What was measured:
[1] = system: male Zucker Diabetic Fatty fa/fa (ZDF) rat; test: Plasma glucose in ZDF rats during and after 3 weeks of oral treatment; assay type: in vivo
From the text: The male Zucker Diabetic Fatty fa/fa (ZDF) rat is a model of Type II diabetes. The rats are insulin resistant but normoglycemic from birth and they develop diabetes from about week 7 to week 10 of age. During the transitional period, the animals go through a state of impaired glucose tolerance. Although the animals are hyperinsulinemic before diabetes onset and during the early stages of diabetes, they later lose glucose-stimulated insulin secretion and finally become almost completely insulinopenic. Male ZDF fa/fa and ZDF fa+ rats were obtained from Genetic Models (Indianapolis, Ind.), at the age of 6 weeks and used in the experiments at 12 weeks of age, after 3 weeks of oral treatment with vehicle or GW3965 (10 mg/kg). Compounds were given once daily (at 17 h) via oral gavage. At the time of their use, the ZDF fa/fa rats weighed 310-350 g, whereas the age-matched ZDF fa+ rats weighed 245-285 g. ZDF fa+ and ZDF fa/fa animals had free access to diabetogenic chow (Purina 5008). Animals were housed 5 per cage in a temperature and humidity-controlled room with a 12/12-h light-dark cycle. Blood samples were taken 16 h after compound administration via the tail vein and measured on a Konelab 300 (Labsystem) clinical chemistry analyzer. At the beginning of the study, glycemia was similar in vehicle- and GW3965-treated ZDF rats.

[2] = system: isolated pancreatic islets; test: Apoptosis by measurement of DNA fragments (Cell Death Detection ELISA) in isolated islets; assay type: in vivo, rat; details: islets of ZDF rats, 10 mg/kg oral, overnight culture in RPMI; vehicle 43.1±9.2%, fa+ 19.9±6.2%
Method: Rat pancreatic islets were prepared by collagenase digestion and density gradient purification. The enzyme collagenase type XI (Sigma Chemical, St. Louis, Mo.) was used for digestion of the pancreas. After an overnight fast, animals were deeply anesthetized and killed. Then, the pancreatic duct was cannulated, and 20 ml of the digestion solution at 37° C. (collagenase 30 mg/ml dissolved in 20 ml Hanks' balanced salt solution [HBSS]) (Sigma Chemical, St. Louis, Mo.) was slowly injected to distend the tissue. After distension, the pancreas was placed into a 20-ml glass beaker containing 5 ml of the digestion solution at 37° C. that was set into a shaking water bath at 37° C. for 8 minutes. After centrifugation at 633 g for 1 min at 4° C., the supernatant was removed and the islets were washed three times with HBSS by centrifugation at 633 g for 1 min at 4° C. For the purification procedure, the islets were resuspended in 4 ml of 80% Histopaque 1.077 (Sigma) and 4 ml HBSS. […] The apoptosis of islet cells was assessed by the Cell Death Detection enzyme-linked immunosorbent assay (ELISA) plus Kit from Roche, according to the procedures recommended by the manufacturer and applied to rat islet experiment. […] At the end of the 5-min incubation, absorbance of samples was read spectrophotometrically at 405 nm. The results were expressed as a percent of internal standard (nucleosomal particles). […]

NOD mice = test: Regeneration of beta cells in NOD mice (pancreatic histology); assay type: in vivo, mouse; details: NOD mice of 4 weeks old, 50 mg/kg for 4 weeks (5 days/7)
From the text: NOD (non-obese diabetes) mice is an experimental model of spontaneous resembling human Type I (insulin-dependent) diabetes, which results from the progressive islet invasion and beta cells destruction by autoreactive T cells. This spontaneous diabetes model offers a unique opportunity of studying the autoreactive T cells involved in the process of beta cell destruction and of settling preventive strategies before clinical onset of the disease. Non fasted mice were killed two days after the last administration of compounds. Pancreatic glands were excised and processed for conventional histological studies after fixation in Bouin's alcoholic solution. Five μm sections were stained with haematoxylin-eosin as described previously by Thivolet C. H. et al., 1991, Diabetologia, 34, 314-319. NOD mice of 4 weeks old have been treated for 4 weeks (5 days/7) with vehicle or GW3965 at 50 mg/kg. Pancreatic histological studies have been carried out as described above.

## O=C(O)Cc1cccc(OCCCN(Cc2cccc(C(F)(F)F)c2Cl)CC(c2ccccc2)c2ccccc2)c1 [GW3965]
[1]; 10 mg/kg oral once daily, day 6 to day 21, vs vehicle
  plasma glucose (glycemia) during treatment: significantly prevented this rise and maintained glycemia at low level
[1]; after 21 days of treatment
  glycemia and HbA1c: significant decrease
[1]; day 44, no treatment from day 21, previously 10 mg/kg oral for 3 weeks
  glycemia after the end of treatment: still significantly reduced
[2]
  apoptosis, DNA fragments as percent of internal standard: 34.0±7.5%
NOD mice
  regeneration of beta cells (formation of new islets): formation of new islets
